Data: paper PMC2680211 (Bioorganic & medicinal chemistry, 2008)

Target: hKOPR (Homo sapiens, UniProt P41145)
Assay type: biochemical

hKOPR, sequence (P41145 whole entry): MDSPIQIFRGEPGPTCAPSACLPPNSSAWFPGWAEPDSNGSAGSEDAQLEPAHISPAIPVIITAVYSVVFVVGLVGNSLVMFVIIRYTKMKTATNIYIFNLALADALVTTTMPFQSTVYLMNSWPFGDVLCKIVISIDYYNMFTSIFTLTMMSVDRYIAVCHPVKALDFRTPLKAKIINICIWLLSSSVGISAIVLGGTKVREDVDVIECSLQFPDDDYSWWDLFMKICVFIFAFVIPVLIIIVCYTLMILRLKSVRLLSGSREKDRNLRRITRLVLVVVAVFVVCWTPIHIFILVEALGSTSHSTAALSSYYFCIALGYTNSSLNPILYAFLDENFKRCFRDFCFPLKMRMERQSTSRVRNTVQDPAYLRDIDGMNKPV

Row | SMILES | KOPR agonism in the [35S]GTPγS functional assay (in words) | KOPR antagonism: effect on U50,488-induced [35S]GTPγS binding | reduction of [35S]GTPγS binding induced by U50,488
1 | COC(=O)[C@@H]1C[C@H](OC(C)=O)C(=O)[C@H]2[C@@]1(C)CC[C@H]1C(=O)O[C@H](c3ccoc3Br)C[C@]21C [Compound 2, 16-bromosalvinorin A] | highly potent KOPR agonist |  | 
2 | COC(=O)[C@@H]1C[C@H](OC(C)=O)C(=O)[C@H]2[C@@]1(C)CC[C@H]1C(=O)O[C@@H](c3ccoc3)C[C@]21C [Compound 6, 12-epi-Salvinorin A] | partial agonist effects | partially blocked the effect of U50,488 | significantly reduced
3 | COC(=O)[C@@H]1C[C@H](OC(C)=O)C(=O)[C@H]2[C@@]1(C)CC[C@H]1C(=O)O[C@H](C(=O)O)C[C@]21C [Compound 7] | weak agonist |  | 
4 | COC(=O)[C@@H]1C[C@H](OC(C)=O)C(=O)[C@H]2[C@@]1(C)CC[C@H]1C(=O)O[C@H](COC(C)=O)C[C@]21C [Compound 11] | weak KOPR agonist |  | 
